Values quoted from earlier work, collected in patent US20200095192A1, “BIODEGRADABLE DIETHANOLAMINE DERIVATIVE CHELATING AGENT AND PREPARATION PROCESS THEREOF” (PTT Global Chemical Public Company Limited, priority 2017, published 2020).
Read-outs that look alike come from different tables or passages of the source.

Tests used:
[1] = nickel (Ni^2+); previous disclosed chelating agent; cited from earlier work
[2] = barium (Ba^2+); previous disclosed chelating agent; cited from earlier work
[3] = tin (Pb^2+); previous disclosed chelating agent; cited from earlier work
[4] = mercury (Hg^2+); previous disclosed chelating agent; cited from earlier work
[5] = zinc (Zn^2+); previous disclosed chelating agent; cited from earlier work
[6] = cobolt (Co^2+); previous disclosed chelating agent; cited from earlier work
[7] = cadmium (Cd^2+); previous disclosed chelating agent; cited from earlier work
[8] = iron (Fe^2+); previous disclosed chelating agent; cited from earlier work
[9] = aluminium (Al^3+); previous disclosed chelating agent; cited from earlier work
[10] = magnesium (Mg^2+); previous disclosed chelating agent; cited from earlier work
[11] = strontium (Sr^2+); previous disclosed chelating agent; cited from earlier work
[12] = calcium (Ca^2+); previous disclosed chelating agent; cited from earlier work
[13] = copper (Cu2+); previous disclosed chelating agent; cited from earlier work
[14] = manganese (Mn^2+); previous disclosed chelating agent; cited from earlier work
[15] = iron (Fe^3+); previous disclosed chelating agent; cited from earlier work

Structure (SMILES)	stability constant [1]	stability constant [2]	stability constant [3]	stability constant [4]	stability constant [5]	stability constant [6]	stability constant [7]	stability constant [8]	stability constant [9]	stability constant [10]	stability constant [11]	stability constant [12]	stability constant [13]	stability constant [14]	stability constant [15]
O=C(O)CN(CC(=O)O)CC(=O)O [NTA, nitrilotriacetic acid]	11.5	4.8	11.5	14.3	10.7	10.4	9.8	8.9	11.4	5.5	5.0	6.4	13.0	7.5	15.9
O=C(O)CN(CCO)CC(=O)O [EDG, ethanol diglycine]	18.2	3.4	13.6	19.8	15.2	8.0	7.4	13.4	7.7	6.2	5.2	4.7	11.8	10.0	21.6
O=C(O)CN(CCN(CC(=O)O)CC(=O)O)CC(=O)O [EDTA, ethylenediamineteraacetic acid]	18.4	7.9	18.0	21.5	16.5	16.5	16.5	14.3	16.4	8.8	8.7	10.7	18.8	13.9	25.1
O=C(O)CC[C@@H](C(=O)O)N(CC(=O)O)CC(=O)O [GLDA, glutamic acid N,N-diacetic acid]	10.9	3.5	10.5	14.3	10.0	10.0	9.1	8.7	12.2	5.2	4.1	5.9	13.1	7.6	11.7
